SMILES strings stand for the structures.

The target of the first assay is Ras-related protein Rab-2A (Canis lupus familiaris, UniProt P61105). Briefly: Rab2A fluorescent GTP competition potency – biochemical, pyrazoline series, Bodipy-FL-GTP, flow cytometry, multiplex, SAR follow-up (AID 2045).
Chain of Ras-related protein Rab-2A (P61105 whole entry): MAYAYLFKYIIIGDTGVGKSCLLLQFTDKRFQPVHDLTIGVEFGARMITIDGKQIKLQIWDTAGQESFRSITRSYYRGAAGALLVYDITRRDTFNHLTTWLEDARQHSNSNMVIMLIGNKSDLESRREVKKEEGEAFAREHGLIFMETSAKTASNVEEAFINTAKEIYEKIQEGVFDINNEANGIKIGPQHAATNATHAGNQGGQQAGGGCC
Conditions: not given
For orientation: In flow cytometry, cells or beads pass a laser one at a time.
Consider `Cc1onc(-c2ccccc2)c1-c1ccc(S(N)(=O)=O)cc1`, for which the EC50 (as a rule, the concentration at which the effect is half-maximal) is above 30 µM.
On the same count and under the same terms, then `O=[N+]([O-])c1ccc([N+]2=N[C-](c3ccccc3)CC2c2ccccc2)cc1` (centres undefined), with above 30 µM; and `Brc1ccc(N2N=C(c3ccccc3)CC2c2ccccc2)cc1` (centres undefined), with above 30 µM; and `COc1ccccc1C1CC(c2ccccc2)=NN1c1ccccc1` (centres undefined), with above 30 µM.
On the same count and under the same terms, to `Clc1cccc(N2N=C(c3ccccc3)CC2c2ccccc2)c1` (centres undefined) belongs above 30 µM; to `Clc1ccc(N2N=C(c3ccccc3)CC2c2ccccc2)cc1` (centres undefined), above 30 µM; to `CC(=O)Oc1ccc(C2=NN(c3ccccc3)C(c3ccccc3)C2)cc1` (centres undefined), above 30 µM.
Same read-out and setting: then `O=C(O)c1ccc(N2N=C(c3ccccc3)CC2c2ccccc2)cc1` (centres undefined), with above 30 µM; and `COc1ccc(C2=NN(c3ccccc3)C(c3ccccc3C(F)(F)F)C2)cc1` (centres undefined), with above 30 µM; and `O=S(=O)(c1ccc(N2N=C(c3ccccc3)CC2c2ccccc2)cc1)C(F)F` (centres undefined), with above 30 µM.
`CCc1ccc(C2=NN(c3ccc(S(N)(=O)=O)cc3)C(c3ccc(F)cc3)C2)cc1` (centres undefined) displayed an EC50 above 30 µM.
The same measure, in the same setting: to `CN(C)c1ccc(C2C[C-](c3ccccc3)N=[N+]2c2ccc([N+](=O)[O-])cc2)cc1` (centres undefined) belongs above 30 µM; to `COc1ccc(C2CC(c3ccc(F)cc3)=NN2c2cccc(F)c2)cc1OC` (centres undefined), above 30 µM; to `COc1ccc(C2CC(c3ccccc3)=NN2c2ccc(Cl)c(C(=O)O)c2)cc1` (centres undefined), above 30 µM.
On to `COc1ccc(C2CC(c3ccc(Cl)cc3)=NN2c2ccc(S(N)(=O)=O)cc2)cc1` (centres undefined), for which the EC50 is above 30 µM.
In turn, `Cc1ccc(C2CC(c3ccccc3)=NN2c2ccc(S(N)(=O)=O)cc2)cc1` (centres undefined) yielded an EC50 above 30 µM.
The same measure, in the same setting: to `Cc1cccc(C2CC(c3ccccc3)=NN2c2ccc(S(N)(=O)=O)cc2)c1` (centres undefined) belongs above 30 µM; to `COc1ccc(C2CC(c3ccccc3OC)=NN2c2ccc(S(N)(=O)=O)cc2)cc1` (centres undefined), above 30 µM; to `COc1ccc(C2CC(c3ccc(C)cc3)=NN2c2ccc(S(N)(=O)=O)cc2)cc1` (centres undefined), above 30 µM.
`COc1ccc(C2CC(c3cccc(C(F)(F)F)c3)=NN2c2ccc(S(N)(=O)=O)cc2)cc1` (centres undefined): the half-maximal effective concentration (EC50) was above 30 µM.
Same read-out and setting: to `COc1ccc(C2CC(c3cccc(N(C)C)c3)=NN2c2ccc(S(N)(=O)=O)cc2)cc1` (centres undefined) belongs above 30 µM.
The same measure, in the same setting: then `COc1ccc(C2CC(c3cccnc3)=NN2c2ccc(S(N)(=O)=O)cc2)cc1` (centres undefined), with above 30 µM; and `COc1ccc(C2CC(c3ccncc3)=NN2c2ccc(S(N)(=O)=O)cc2)cc1` (centres undefined), with above 30 µM.
The same measure, in the same setting: then `Fc1ccccc1C1CC(c2ccc(Br)cc2)=NN1c1ccc(Br)cc1` (centres undefined) [2,5-bis(4-bromophenyl)-3-(2-fluorophenyl)-3,4-dihydropyrazole], with above 30 µM.
In the case of `COc1ccc(C2CC(c3ccc(F)cc3)=NN2c2cc(Cl)ccc2Cl)cc1` (centres undefined) [2-(2,5-dichlorophenyl)-5-(4-fluorophenyl)-3-(4-methoxyphenyl)-3,4-dihydropyrazole], the EC50 is above 30 µM.
Same read-out and setting: then `COc1ccc(C2=NN(c3ccc(Cl)c(Cl)c3)C(c3ccc(OC)cc3)C2)cc1` (centres undefined) [2-(3,4-dichlorophenyl)-3,5-bis(4-methoxyphenyl)-3,4-dihydropyrazole], with above 30 µM.
For `Fc1ccc(C2=NN(c3cccc(Br)c3)C(c3ccccc3)C2)cc1` (centres undefined) [2-(3-bromophenyl)-5-(4-fluorophenyl)-3-phenyl-3,4-dihydropyrazole], the EC50 is above 30 µM.
The same measure, in the same setting: to `COc1ccc(C2CC(c3ccccc3)=NN2c2ccc(Cl)c(C(=O)O)c2)cc1OC` (centres undefined) [2-chloro-5-[3-(3,4-dimethoxyphenyl)-5-phenyl-3,4-dihydropyrazol-2-yl]benzoic acid] belongs above 30 µM.
The molecule `COc1ccc(C2=NN(c3cccc(F)c3)C(c3ccc(Cl)cc3)C2)cc1` (centres undefined) [3-(4-chlorophenyl)-2-(3-fluorophenyl)-5-(4-methoxyphenyl)-3,4-dihydropyrazole] displayed an EC50 above 30 µM.
Still for that read-out and setting: to `COc1ccc(C2C[C-](c3ccccc3)N=[N+]2c2ccc([N+](=O)[O-])cc2)cc1` (centres undefined) [3-(4-methoxyphenyl)-2-(4-nitrophenyl)-5-phenyl-3,4-dihydropyrazole] belongs above 30 µM.
Still for that read-out and setting: to `CN(C)c1ccc(C2CC(c3ccccc3)=NN2c2ccccc2)cc1` (centres undefined) [4-(2,5-diphenyl-3,4-dihydropyrazol-3-yl)-N,N-dimethylaniline] belongs above 30 µM; to `NS(=O)(=O)c1ccc(N2N=C(c3ccccc3)CC2c2ccccc2)cc1` (centres undefined) [4-(3,5-diphenyl-3,4-dihydropyrazol-2-yl)benzenesulfonamide], above 30 µM; to `NS(=O)(=O)c1ccc(N2N=C(c3ccccc3)CC2c2ccccc2Br)cc1` (centres undefined) [4-[3-(2-bromophenyl)-5-phenyl-3,4-dihydropyrazol-2-yl]benzenesulfonamide], above 30 µM.
The same measure, in the same setting: then `COc1ccccc1C1CC(c2ccccc2)=NN1c1ccc(S(N)(=O)=O)cc1` (centres undefined) [4-[3-(2-methoxyphenyl)-5-phenyl-3,4-dihydropyrazol-2-yl]benzenesulfonamide], with above 30 µM; and `COc1cccc(C2CC(c3ccccc3)=NN2c2ccc(S(N)(=O)=O)cc2)c1` (centres undefined) [4-[3-(3-methoxyphenyl)-5-phenyl-3,4-dihydropyrazol-2-yl]benzenesulfonamide], with above 30 µM.
As to `NS(=O)(=O)c1ccc(N2N=C(c3ccccc3)CC2c2ccc(Cl)cc2)cc1` (centres undefined) [4-[3-(4-chlorophenyl)-5-phenyl-3,4-dihydropyrazol-2-yl]benzenesulfonamide], the EC50 is above 30 µM.
As for `COc1ccc(C2CC(c3ccc(C(F)(F)F)cc3)=NN2c2ccc(S(N)(=O)=O)cc2)cc1` (centres undefined) [4-[3-(4-methoxyphenyl)-5-[4-(trifluoromethyl)phenyl]-3,4-dihydropyrazol-2-yl]benzenesulfonamide], the EC50 is above 30 µM.
The same measure, in the same setting: then `COc1ccc(C2CC(C)=NN2c2ccc(S(N)(=O)=O)cc2)cc1` (centres undefined) [4-[3-(4-methoxyphenyl)-5-methyl-3,4-dihydropyrazol-2-yl]benzenesulfonamide], with above 30 µM; and `COc1ccc(C2CC(c3ccsc3)=NN2c2ccc(S(N)(=O)=O)cc2)cc1` (centres undefined) [4-[3-(4-methoxyphenyl)-5-thiophen-3-yl-3,4-dihydropyrazol-2-yl]benzenesulfonamide], with above 30 µM.
Same read-out and setting: then `COc1ccc(C2CC(c3ccccc3Cl)=NN2c2ccc(S(N)(=O)=O)cc2)cc1` (centres undefined) [4-[5-(2-chlorophenyl)-3-(4-methoxyphenyl)-3,4-dihydropyrazol-2-yl]benzenesulfonamide], with above 30 µM; and `COc1ccc(C2CC(c3cccc(F)c3)=NN2c2ccc(S(N)(=O)=O)cc2)cc1` (centres undefined) [4-[5-(3-fluorophenyl)-3-(4-methoxyphenyl)-3,4-dihydropyrazol-2-yl]benzenesulfonamide], with above 30 µM.
The same measure, in the same setting: then `COc1ccc(C2CC(c3cccc(OC)c3)=NN2c2ccc(S(N)(=O)=O)cc2)cc1` (centres undefined) [4-[5-(3-methoxyphenyl)-3-(4-methoxyphenyl)-3,4-dihydropyrazol-2-yl]benzenesulfonamide], with above 30 µM; and `NS(=O)(=O)c1ccc(N2N=C(c3ccc(Br)cc3)CC2c2ccc(F)cc2)cc1` (centres undefined) [4-[5-(4-bromophenyl)-3-(4-fluorophenyl)-3,4-dihydropyrazol-2-yl]benzenesulfonamide], with above 30 µM.
For `COc1ccc(-c2cc(-c3ccccc3)nn2-c2ccc(S(N)(=O)=O)cc2)cc1` [4-[5-(4-methoxyphenyl)-3-phenylpyrazol-1-yl]benzenesulfonamide], the half-maximal effective concentration (EC50) was above 30 µM.
`COc1ccc(C2CC(C3CCCCC3)=NN2c2ccc(S(N)(=O)=O)cc2)cc1` (centres undefined) [4-[5-cyclohexyl-3-(4-methoxyphenyl)-3,4-dihydropyrazol-2-yl]benzenesulfonamide] yielded an EC50 above 30 µM.
The molecule `O=S(=O)(c1ccc(N2N=C(c3ccc(Br)cc3)CC2c2ccccc2)cc1)C(F)F` (centres undefined) [5-(4-bromophenyl)-2-[4-(difluoromethylsulfonyl)phenyl]-3-phenyl-3,4-dihydropyrazole] registered an EC50 above 30 µM.
On the same count and under the same terms, to `FC(F)(F)c1ccccc1C1CC(c2ccc(Br)cc2)=NN1c1ccccc1` (centres undefined) [5-(4-bromophenyl)-2-phenyl-3-[2-(trifluoromethyl)phenyl]-3,4-dihydropyrazole] belongs above 30 µM; to `O=[N+]([O-])c1cccc(C2C[C-](c3ccc(F)cc3)N=[N+]2c2ccccc2)c1` (centres undefined) [5-(4-fluorophenyl)-3-(3-nitrophenyl)-2-phenyl-3,4-dihydropyrazole], above 30 µM.
Still for that read-out and setting: then `Cc1ccc(-c2cc(C(F)(F)F)nn2-c2ccc(S(N)(=O)=O)cc2)cc1` [Celecoxib], with above 30 µM.
Still for that read-out and setting: to `COc1ccc(C2CC(c3ccc(N(C)C)cc3)=NN2c2ccc(S(N)(=O)=O)cc2)cc1` (centres undefined) [KUC103422N] belongs above 30 µM; to `COc1ccc(C2CC(c3cccs3)=NN2c2ccc(S(N)(=O)=O)cc2)cc1` (centres undefined) [KUC103438N], above 30 µM.
For the molecule `NS(=O)(=O)c1ccc(N2N=C(c3ccccc3)CC2c2ccccc2Cl)cc1` (centres undefined) [KUC103446N], the EC50 was above 30 µM.
In turn, `COc1ccc(C2CC(C(C)(C)C)=NN2c2ccc(S(N)(=O)=O)cc2)cc1` (centres undefined) [KUC103450N] displayed a concentration giving a half-maximal response (EC50) above 30 µM.
Still for that read-out and setting: then `COc1ccc(C2CC(c3ccccc3C(F)(F)F)=NN2c2ccc(S(N)(=O)=O)cc2)cc1` (centres undefined) [KUC103474N], with above 30 µM.

The assay is the same for the next values; noted with them: inactive by the depositor's call.
With `NS(=O)(=O)c1ccc(N2N=C(c3ccc(Cl)cc3)CC2c2ccccc2)cc1` (centres undefined), the EC50 turned out to be 0.056 µM.
Same read-out and setting: to `COc1ccc(C2=NN(c3cccc(F)c3)C(c3ccc(OC)cc3)C2)cc1` (centres undefined) [2-(3-fluorophenyl)-3,5-bis(4-methoxyphenyl)-3,4-dihydropyrazole] belongs 1 µM; to `COc1ccc(C2CC(c3ccccc3)=NN2c2cccc(S(N)(=O)=O)c2)cc1` (centres undefined) [3-[3-(4-methoxyphenyl)-5-phenyl-3,4-dihydropyrazol-2-yl]benzenesulfonamide], 0.074 µM.
Still for that read-out and setting: then `COc1ccc(C2=NN(c3ccc(S(N)(=O)=O)cc3)C(c3ccc(OC)cc3)C2)cc1` (centres undefined) [4-[3,5-bis(4-methoxyphenyl)-3,4-dihydropyrazol-2-yl]benzenesulfonamide], with 1.69 µM.
Molecule `COc1ccc(C2CC(c3ccc(F)cc3)=NN2c2ccc(S(N)(=O)=O)cc2)cc1` (centres undefined) [4-[5-(4-fluorophenyl)-3-(4-methoxyphenyl)-3,4-dihydropyrazol-2-yl]benzenesulfonamide] had an EC50 of 0.015 µM.

(Values after BindingDB's records for doi:10.7270/Q2ZW1JC6 (Nmmlsc, 2016).)
